How the values were obtained:
[1] = test system: several strains of Staphylococcus aurelius, including Methicillin-resistant Staphylococcus aureus isolates; test: MIC50 on Staphylococcus strains including Methicillin-resistant Staphylococcus aureus isolates; type: cell-based; conditions: same bacteria strains, incl. MRSA isolates; comparator 4-chlorophenyl 2-thienyl iodonium chloride
E. Coli = test: challenging the growth of E. Coli with measurement of optical density of media; type: cell-based; conditions: same optical density reduction; comparator 4-chlorophenyl-2-thienyliodonium bromide
Text: In an experiment challenging the growth of E. Coli with measurement of optical density of media, the present iodonium composition, 3,5-dimethyl 4-chlorophenyl 2-thienyl iodonium bromide, suppressed the optical density of the E. Coli media at one tenth the concentration needed to accomplish the same optical density reduction utilizing 4-chlorophenyl-2-thienyliodonium bromide. Optical density of the media is a semi-quantitative measure of the presence of growing bacteria. Reduced density indicates the test compounds are retarding bacterial growth. Thus, 3,5-dimethyl 4-chlorophenyl 2-thienyl iodonium bromide, which is non-toxic to mammals, has greater antimicrobial activity than 4-chlorophenyl-2-thienyliodonium bromide.

human epithelial cells = test: tests of toxicity on human epithelial cells; type: cell-based; conditions: approximate levels of 0.25 millimole concentrations; compared with controls
mice = conditions: cited from earlier work

| Compound | MIC50 as fraction of the MIC50 for 4-chlorophenyl 2-thienyl iodonium chloride [1] | concentration needed to suppress optical density of E. Coli media, as fraction of that needed with 4-chlorophenyl-2-thienyliodonium bromide (E. Coli) | toxicity on human epithelial cells (human epithelial cells) | oral median lethal dose (LD50) (mice) |
| --- | --- | --- | --- | --- |
| Cc1cc([I+]c2cccs2)cc(C)c1Cl.[Br-] [3,5-dimethyl 4-chlorophenyl 2-thienyl iodonium bromide] | one fifth | one tenth | lack of toxicity similar to that of controls |  |
| Clc1ccc([I+]c2cccs2)cc1.[Br-] [4-chlorophenyl-2-thienyliodonium bromide, reference compound] |  |  | lack of toxicity similar to that of controls |  |
| Clc1ccc([I+]c2cccs2)cc1.[Cl-] [4-chlorophenyl-2-thienyliodonium chloride] |  |  |  | greater than 4000 mg/kg |
